Assay results: article PMC10127574 (ACS chemical biology, 2015)
Like-named read-outs stand apart in the source and are kept apart here.

Tests used:
[1] = biological target: T1, recombinant wild-type IDE (WT-IDE) (Homo sapiens, UniProt P14735); test: cell-free IDE activity assay with fluorogenic peptide substrate FRET1; assay type: biochemical
T1 sequence (P14735 1-1019): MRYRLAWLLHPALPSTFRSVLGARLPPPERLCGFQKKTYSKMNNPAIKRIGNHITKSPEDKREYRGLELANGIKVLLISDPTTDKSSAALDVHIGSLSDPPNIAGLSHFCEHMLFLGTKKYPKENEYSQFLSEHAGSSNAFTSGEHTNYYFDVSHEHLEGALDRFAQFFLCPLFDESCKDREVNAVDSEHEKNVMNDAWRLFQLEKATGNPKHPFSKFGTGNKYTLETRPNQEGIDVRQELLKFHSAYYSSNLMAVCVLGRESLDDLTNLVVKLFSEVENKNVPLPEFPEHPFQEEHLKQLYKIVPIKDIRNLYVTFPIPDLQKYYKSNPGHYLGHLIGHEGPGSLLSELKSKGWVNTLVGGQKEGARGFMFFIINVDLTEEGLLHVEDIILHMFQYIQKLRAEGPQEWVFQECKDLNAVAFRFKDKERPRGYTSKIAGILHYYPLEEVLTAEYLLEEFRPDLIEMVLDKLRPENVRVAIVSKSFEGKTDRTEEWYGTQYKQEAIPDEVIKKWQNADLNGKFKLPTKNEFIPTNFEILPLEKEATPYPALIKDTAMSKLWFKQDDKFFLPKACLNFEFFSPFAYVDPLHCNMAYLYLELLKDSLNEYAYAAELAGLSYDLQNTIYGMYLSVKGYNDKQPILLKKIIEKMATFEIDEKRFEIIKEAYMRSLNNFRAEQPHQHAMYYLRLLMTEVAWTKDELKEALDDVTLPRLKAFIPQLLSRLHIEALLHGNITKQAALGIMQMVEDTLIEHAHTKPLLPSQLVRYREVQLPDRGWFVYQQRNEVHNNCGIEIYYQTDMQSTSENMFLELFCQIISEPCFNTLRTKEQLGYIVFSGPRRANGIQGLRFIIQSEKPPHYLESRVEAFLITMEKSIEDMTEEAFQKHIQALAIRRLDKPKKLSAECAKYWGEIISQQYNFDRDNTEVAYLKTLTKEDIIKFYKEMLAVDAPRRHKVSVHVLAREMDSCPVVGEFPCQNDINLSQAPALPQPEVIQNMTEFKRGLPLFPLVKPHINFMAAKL

[2] = biological target: T2, cysteine-free form of IDE (CF-IDE) (Homo sapiens, UniProt P14735, C819S, form not given); test: IDE activity assay with FRET1 using cysteine-free IDE; assay type: biochemical; conditions: read-out: ki CF-IDE
T2 sequence (P14735 42-1019 C819S): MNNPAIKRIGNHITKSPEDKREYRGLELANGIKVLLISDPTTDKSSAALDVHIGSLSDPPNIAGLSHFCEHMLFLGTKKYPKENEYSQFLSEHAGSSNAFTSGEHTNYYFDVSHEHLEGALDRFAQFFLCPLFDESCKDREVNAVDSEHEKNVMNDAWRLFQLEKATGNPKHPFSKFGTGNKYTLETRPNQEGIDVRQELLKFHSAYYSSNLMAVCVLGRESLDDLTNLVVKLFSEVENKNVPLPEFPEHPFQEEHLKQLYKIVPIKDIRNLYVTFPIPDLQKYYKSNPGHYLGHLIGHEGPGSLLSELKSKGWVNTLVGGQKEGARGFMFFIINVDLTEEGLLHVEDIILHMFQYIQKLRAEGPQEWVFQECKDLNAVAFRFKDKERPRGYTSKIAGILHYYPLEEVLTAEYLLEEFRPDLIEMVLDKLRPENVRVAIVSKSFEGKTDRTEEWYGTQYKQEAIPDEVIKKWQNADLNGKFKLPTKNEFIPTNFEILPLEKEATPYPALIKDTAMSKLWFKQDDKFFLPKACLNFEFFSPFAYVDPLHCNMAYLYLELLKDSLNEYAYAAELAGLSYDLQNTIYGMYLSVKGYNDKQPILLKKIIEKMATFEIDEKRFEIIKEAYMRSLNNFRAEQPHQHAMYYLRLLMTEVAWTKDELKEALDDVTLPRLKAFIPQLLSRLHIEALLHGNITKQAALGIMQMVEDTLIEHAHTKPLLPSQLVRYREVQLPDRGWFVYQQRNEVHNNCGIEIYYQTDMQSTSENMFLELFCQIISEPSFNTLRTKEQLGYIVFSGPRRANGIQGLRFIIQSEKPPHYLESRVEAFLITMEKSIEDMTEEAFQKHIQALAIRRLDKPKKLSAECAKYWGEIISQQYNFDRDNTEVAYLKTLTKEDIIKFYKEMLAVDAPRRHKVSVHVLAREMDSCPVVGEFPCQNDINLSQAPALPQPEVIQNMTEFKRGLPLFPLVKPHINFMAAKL

BEI (binding efficiency index, pIC50^app/MW, kDa) [1]: 15
IC50 ([1]; read-out: IC50^app cell-free, Table 2): 63 nM
IC50 ([1]; read-out: IC50^app in vitro, FRET1, Table 3, n=5): 63 ± 8.1 nM
Ki [2]: 8370 nM
Structure (SMILES): O=c1c2cc(F)ccc2sn1-c1cc(S(=O)(=O)N2CCOCC2)ccc1N1CCOCC1 [Compound 8, 5-fluoro-2-(2-morpholin-4-yl-5-morpholin-4-ylsulfonylphenyl)-1,2-benzothiazol-3-one]
